Assay: xn = mol fraction of the nth substance listed
Settings: 101 kPa

## CCCC[n+]1ccn(C)c1.N[C@@H](CC(=O)O)C(=O)[O-] + CO
298.15 K, x1 = 0.0099
  electrical conductivity: 0.82 S/m
298.15 K, x2 = 0.1001
  electrical conductivity: 0.087 S/m
298.15 K, x2 = 0.1999
  electrical conductivity: 0.093 S/m
298.15 K, x2 = 0.398
  electrical conductivity: 0.125 S/m
298.15 K, x2 = 0.5949
  electrical conductivity: 0.218 S/m
298.15 K, x2 = 0.6969
  electrical conductivity: 0.314 S/m
298.15 K, x2 = 0.9214
  electrical conductivity: 1.27 S/m
298.15 K, x2 = 0.9501
  electrical conductivity: 1.36 S/m
298.15 K, x2 = 0.975
  electrical conductivity: 1.23 S/m
303.15 K, x1 = 0.0099
  electrical conductivity: 0.89 S/m
303.15 K, x2 = 0.1001
  electrical conductivity: 0.101 S/m
303.15 K, x2 = 0.2999
  electrical conductivity: 0.148 S/m
303.15 K, x2 = 0.398
  electrical conductivity: 0.185 S/m
303.15 K, x2 = 0.5015
  electrical conductivity: 0.231 S/m
303.15 K, x2 = 0.7957
  electrical conductivity: 0.75 S/m
303.15 K, x2 = 0.8988
  electrical conductivity: 1.22 S/m
303.15 K, x2 = 0.9214
  electrical conductivity: 1.32 S/m
303.15 K, x2 = 0.9501
  electrical conductivity: 1.39 S/m
303.15 K, x2 = 0.975
  electrical conductivity: 1.25 S/m
308.15 K, x1 = 0.0099
  electrical conductivity: 1 S/m
308.15 K, x2 = 0.1001
  electrical conductivity: 0.124 S/m
308.15 K, x2 = 0.1999
  electrical conductivity: 0.155 S/m
308.15 K, x2 = 0.2999
  electrical conductivity: 0.202 S/m
308.15 K, x2 = 0.5015
  electrical conductivity: 0.263 S/m
308.15 K, x2 = 0.5949
  electrical conductivity: 0.336 S/m
308.15 K, x2 = 0.7957
  electrical conductivity: 0.83 S/m
308.15 K, x2 = 0.8988
  electrical conductivity: 1.28 S/m
308.15 K, x2 = 0.9501
  electrical conductivity: 1.44 S/m
318.15 K, x1 = 0.0099
  electrical conductivity: 1.03 S/m
318.15 K, x2 = 0.1001
  electrical conductivity: 0.205 S/m
318.15 K, x2 = 0.2999
  electrical conductivity: 0.233 S/m
318.15 K, x2 = 0.398
  electrical conductivity: 0.26 S/m
318.15 K, x2 = 0.5949
  electrical conductivity: 0.429 S/m
318.15 K, x2 = 0.6969
  electrical conductivity: 0.64 S/m
318.15 K, x2 = 0.9214
  electrical conductivity: 1.48 S/m
318.15 K, x2 = 0.9501
  electrical conductivity: 1.57 S/m
318.15 K, x2 = 0.975
  electrical conductivity: 1.39 S/m

From a compilation of properties of binary mixtures (doi:10.1021/je300932n)
